US4603144A, “Kojic acid ether-ester derivatives” (G. D. Searle & Co., priority 1984, dated 1986)

Biological target: T1, Human Leukocyte Elastase (HLE) (Homo sapiens, UniProt P08246)
T1 sequence (P08246 30-267): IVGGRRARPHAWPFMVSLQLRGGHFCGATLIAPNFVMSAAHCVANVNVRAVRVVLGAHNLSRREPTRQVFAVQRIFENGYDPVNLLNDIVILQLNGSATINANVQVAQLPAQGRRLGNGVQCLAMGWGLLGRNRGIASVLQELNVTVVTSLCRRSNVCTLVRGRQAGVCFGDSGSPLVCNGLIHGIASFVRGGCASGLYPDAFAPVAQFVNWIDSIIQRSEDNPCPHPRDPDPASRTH
Experiment: Inhibition of Human Leukocyte Elastase (HLE); hydrolysis of Methoxy-succinyl-Alanyl-Alanyl-Prolyl-Valyl-nitroanilide
Format: biochemical
Conditions: for inhibition at 10 µM: 1.0 × 10^-5 Molar; for inhibition at 20 µM: 2.0 × 10^-5 Molar; for inhibition at 5 µM: 5.0 × 10^-6 Molar; for inhibition at 1 µM: 1.0 × 10^-6 Molar; for inhibition at 0.2 µM: 2.0 × 10^-7 Molar; for inhibition at 0.05 µM: 5.0 × 10^-8 Molar
Protocol: Inhibition of Human Leukocyte Elastase (HLE)
This test measures the rate of hydrolysis of Methoxy-succinyl-Alanyl-Alanyl-Prolyl-Valyl-nitroanilide by HLE in the presence and absence of the compound to be tested. The procedure used is as follows. The following stock solutions are prepared.
1. a saline solution of HLE prepared from a composition containing 10% HLE with the remainder being sodium acetate (300 micrograms per ml) wherein the concentration was adjusted to give a change in absorption of 0.12 od units per minute in the assay in the absence derivative,
2. a dimethylsulfoxide solution of the nitroanilide peptide (2m mole),
3. tris-HCl buffer (0.2M,pH 8.0) and
4. a dimethylsulfoxide solution of the derivative to be tested at 20 times the desired final concentration.
The test hydrolysis solution was then prepared by adding 850 microliters buffer, 50 microliters derivative solution, 50 microliters peptide solution to a 1 cm. semi-micro cuvette. The cuvette was capped, slightly shaken and placed in the light chamber of a recording colorimeter where the increase in absorption at 410 nm. due to liberated nitroaniline was measured. Using this procedure, the one minute change in absorption of the test sample containing derivative was compared to the change in absorption in the absence of derivative. A 20% or more decrease in the rate of absorption was interpreted as a positive inhibition.

SMILES | inhibition at 10 µM [%] | inhibition at 20 µM [%] | inhibition at 5 µM [%] | inhibition at 1 µM [%] | inhibition at 0.2 µM [%] | inhibition at 0.05 µM [%]
CCCCCCCCCCCCCCOCc1cc(=O)c(O)co1 [Example 12, 5-hydroxy-2-[(tetradecyloxy)methyl]-4Hpyran-4-one] | 34 | 48 | – | – | – | –
CCCCCCCCCCCCCCCCOCc1cc(=O)c(O)co1 [Example 13, 5-hydroxy-2-[(hexadecyloxy)methyl]-4Hpyran-4-one] | – | 23 | – | – | – | –
CCCCCCCCCCCCCCCCOc1coc(COC(=O)C(C)(C)C)cc1=O [Example 23, 5-Hexadecyloxy-4-oxo-4Hpyran-2-hydroxymethyl-2,2-dimethylpropanoate] | 62 | 65 | 36 | – | – | –
CCCCCCCCCCCCCCCCOCc1cc(=O)c(OC(=O)C(C)C)co1 [Example 17, 2-[(hexadecyloxy)methyl]-4-oxo-4H pyran-5-yl-2-methylpropanoate] | – | – | – | 88 | 81 | 61
CCCCCCCCCCCCCCOCc1cc(=O)c(OC(=O)C(C)(C)C)co1 [Example 15, 4-oxo-2-[(tetradecyloxy)methyl]-4H pyran-5-yl-2,2-dimethylpropanoate] | 81 | 88 | – | – | 60 | 38
CCCCCCCCCCCCCCCCCCOCc1cc(=O)c(O)co1 [Example 14, 5-hydroxy-2-[(octadecyloxy)methyl]-4Hpyran-4-one] | 46 | 50 | – | – | – | –
CCCCCCCCCCCCCCCCOc1coc(COC2CCCCO2)cc1=O (centres unmarked) [Example 21, 5-Hexadecyloxy-2-tetrahydropyrany/oxymethyl-4H pyran-4-one] | – | 23 | – | – | – | –
CCCCCCCCCCCCCCCCOCc1cc(=O)c(OC(=O)C(C)(C)C)co1 [Example 16, 2-[(hexadecyloxy)methyl]-4-oxo-4H pyran-5-yl-2,2-dimethylpropanoate] | 87 | 89 | – | 69 | 52 | 27
CCCCCCCCCCCCCCCCOc1coc(C(=O)O)cc1=O [Example 24, 5-Hexadecyloxy-2-carboxyl-4Hpyran-4-one] | 83 | 86 | 84 | – | – | –
CCCCCCCCCCCCCCCCCCOCc1cc(=O)c(OC(=O)C(C)(C)C)co1 [Example 20, 2-[(octadecyloxy)methyl] -4-oxo-4Hpyran-5-yl-2,2-dimethylpropanoate] | 73 | 66 | 69 | – | – | –
CCCCCCCCCCCCCCCCCCOCc1cc(=O)c(OCc2ccccc2)co1 [Example 11, 2-[(octadecyloxy)methyl]-5-(phenylmethoxy)-4Hpyran-4-one] | – | 24 | – | – | – | –
CCCCCCCCCCCCCCCCOCc1cc(=O)c(OC(=O)CC(C)C)co1 [Example 19, 2-[(hexadecyloxy)methyl]-4-oxo-4H pyran-5-yl-3-methylbutansate] | 52 | 67 | – | – | – | –
CCCCCCCCCCCCCCCCOCc1cc(=O)c(OC(=O)C(C)C(C)C)co1 (centres unmarked) [Example 18, 2-[(hexadecyloxy)methyl]-4-oxo-4H pyran-5-yl-2,3-dimethylbutanoate] | 48 | 59 | – | – | – | –
